# Data reported in PubChem BioAssay AID2060604 (Molecular Pharmacology Branch, DTP, NCI, 2025).
# Tested on: 379773-124-R-J2-PDC complex spheroids, viability % test/control
# Test: Anticancer human tumor 379773-124-R-J2-PDC patient-derived endometrial carcinoma cell line growth inhibition [CLK]
# Details: for IC50: curve of first compound; for viability, T/C: stronger effect = lower value
# In short: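 Multi-cell-type spheroids combined patient-derived tumor cells with HUVEC endothelial cells and human mesenchymal stem cells. Paired agents were dosed in half-log steps down from about clinical Cmax, or from 10 microM where Cmax was unknown.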
# [1] = second compound 0.0316 µM, first compound 0.00949 µM
# [2] = second compound 0.0316 µM, first compound 0.03 µM
# [3] = second compound 0.0316 µM, first compound 0.0949 µM
# [4] = second compound 0.0316 µM, first compound 0.3 µM
# [5] = second compound 0.1 µM, first compound 0.00949 µM
# [6] = second compound 0.1 µM, first compound 0.03 µM
# [7] = second compound 0.1 µM, first compound 0.0949 µM
# [8] = second compound 0.1 µM, first compound 0.3 µM
# [9] = second compound 0.316 µM, first compound 0.00949 µM
# [10] = second compound 0.316 µM, first compound 0.03 µM
# [11] = second compound 0.316 µM, first compound 0.0949 µM
# [12] = second compound 0.316 µM, first compound 0.3 µM
# [13] = second compound 1 µM, first compound 0.00949 µM
# [14] = second compound 1 µM, first compound 0.03 µM
# [15] = second compound 1 µM, first compound 0.0949 µM
# [16] = second compound 1 µM, first compound 0.3 µM
# [17] = second compound 3.16 µM, first compound 0.00949 µM
# [18] = second compound 3.16 µM, first compound 0.03 µM
# [19] = second compound 3.16 µM, first compound 0.0949 µM
# [20] = second compound 3.16 µM, first compound 0.3 µM
# [21] = second compound 10 µM, first compound 0.00949 µM
# [22] = second compound 10 µM, first compound 0.03 µM
# [23] = second compound 10 µM, first compound 0.0949 µM
# [24] = second compound 10 µM, first compound 0.3 µM
# [25] = second compound 0.0316 µM, first compound 0.0316 µM
# [26] = second compound 0.0316 µM, first compound 0.1 µM
# [27] = second compound 0.0316 µM, first compound 0.316 µM
# [28] = second compound 0.0316 µM, first compound 1 µM
# [29] = second compound 0.0316 µM, first compound 3.16 µM
# [30] = second compound 0.0316 µM, first compound 10 µM
# [31] = second compound 0.1 µM, first compound 0.0316 µM
# [32] = second compound 0.1 µM, first compound 0.1 µM
# [33] = second compound 0.1 µM, first compound 0.316 µM
# [34] = second compound 0.1 µM, first compound 1 µM
# [35] = second compound 0.1 µM, first compound 3.16 µM
# [36] = second compound 0.1 µM, first compound 10 µM
# [37] = second compound 0.316 µM, first compound 0.0316 µM
# [38] = second compound 0.316 µM, first compound 0.1 µM
# [39] = second compound 0.316 µM, first compound 0.316 µM
# [40] = second compound 0.316 µM, first compound 1 µM
# [41] = second compound 0.316 µM, first compound 3.16 µM
# [42] = second compound 0.316 µM, first compound 10 µM
# [43] = second compound 1 µM, first compound 0.0316 µM
# [44] = second compound 1 µM, first compound 0.1 µM
# [45] = second compound 1 µM, first compound 0.316 µM
# [46] = second compound 1 µM, first compound 1 µM
# [47] = second compound 1 µM, first compound 3.16 µM
# [48] = second compound 1 µM, first compound 10 µM
# [49] = second compound 3.16 µM, first compound 0.0316 µM
# [50] = second compound 3.16 µM, first compound 0.1 µM
# [51] = second compound 3.16 µM, first compound 0.316 µM
# [52] = second compound 3.16 µM, first compound 1 µM
# [53] = second compound 3.16 µM, first compound 3.16 µM
# [54] = second compound 3.16 µM, first compound 10 µM
# [55] = second compound 10 µM, first compound 0.0316 µM
# [56] = second compound 10 µM, first compound 0.1 µM
# [57] = second compound 10 µM, first compound 0.316 µM
# [58] = second compound 10 µM, first compound 1 µM
# [59] = second compound 10 µM, first compound 3.16 µM
# [60] = second compound 10 µM, first compound 10 µM
# 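Note: compound exposure lasted seven days before the viability readout.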
# 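Throughout, for viability, T/C: 100% = DMSO vehicle control wells.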
smiles,measurement,setting,value
C=CC(=O)Nc1cc(Nc2nccc(-c3cn(C)c4ccccc34)n2)c(OC)cc1N(C)CCN(C)C + CNC(=O)c1ccc(Nc2nc(OC3CCCC3)c3c(-c4ccc5nc(C)oc5c4)c[nH]c3n2)c(OC)c1,IC50,second compound 0.0316 µM,> 300 nM
same,IC50,second compound 0.1 µM,< 0.949 nM
same,IC50,second compound 0.316 µM,< 0.949 nM
same,IC50,second compound 1 µM,< 0.949 nM
same,IC50,second compound 3.16 µM,< 0.949 nM
same,IC50,second compound 10 µM,< 0.949 nM
same,"viability, T/C","second compound 0.0316 µM, first compound 0.000949 µM",82.7%
same,"viability, T/C","second compound 0.0316 µM, first compound 0.003 µM",84.2%
same,"viability, T/C",[1],78.9%
same,"viability, T/C",[2],73%
same,"viability, T/C",[3],77.6%
same,"viability, T/C",[4],58.1%
same,"viability, T/C","second compound 0.1 µM, first compound 0.000949 µM",35.2%
same,"viability, T/C","second compound 0.1 µM, first compound 0.003 µM",37%
same,"viability, T/C",[5],42.6%
same,"viability, T/C",[6],31.2%
same,"viability, T/C",[7],32.5%
same,"viability, T/C",[8],38%
same,"viability, T/C","second compound 0.316 µM, first compound 0.000949 µM",44.7%
same,"viability, T/C","second compound 0.316 µM, first compound 0.003 µM",39.9%
same,"viability, T/C",[9],32%
same,"viability, T/C",[10],34.5%
same,"viability, T/C",[11],31.3%
same,"viability, T/C",[12],26.2%
same,"viability, T/C","second compound 1 µM, first compound 0.000949 µM",45.4%
same,"viability, T/C","second compound 1 µM, first compound 0.003 µM",39%
same,"viability, T/C",[13],31.2%
same,"viability, T/C",[14],28.8%
same,"viability, T/C",[15],26.6%
same,"viability, T/C",[16],30.4%
same,"viability, T/C","second compound 3.16 µM, first compound 0.000949 µM",30.1%
same,"viability, T/C","second compound 3.16 µM, first compound 0.003 µM",37.5%
same,"viability, T/C",[17],32.5%
same,"viability, T/C",[18],34.3%
same,"viability, T/C",[19],25.7%
same,"viability, T/C",[20],28.2%
same,"viability, T/C","second compound 10 µM, first compound 0.000949 µM",30.9%
same,"viability, T/C","second compound 10 µM, first compound 0.003 µM",30.1%
same,"viability, T/C",[21],27.1%
same,"viability, T/C",[22],35.1%
same,"viability, T/C",[23],28%
same,"viability, T/C",[24],25.9%
CC1(C)CCC(CN2CCN(c3ccc(C(=O)NS(=O)(=O)c4ccc(NCC5CCOCC5)c([N+](=O)[O-])c4)c(Oc4cnc5[nH]ccc5c4)c3)CC2)=C(c2ccc(Cl)cc2)C1 + CNC(=O)c1ccc(Nc2nc(OC3CCCC3)c3c(-c4ccc5nc(C)oc5c4)c[nH]c3n2)c(OC)c1,IC50,second compound 0.0316 µM,4460 nM
same,IC50,second compound 0.1 µM,< 31.6 nM
same,IC50,second compound 0.316 µM,< 31.6 nM
same,IC50,second compound 1 µM,< 31.6 nM
same,IC50,second compound 3.16 µM,< 31.6 nM
same,IC50,second compound 10 µM,< 31.6 nM
same,"viability, T/C",[25],68.1%
same,"viability, T/C",[26],79.2%
same,"viability, T/C",[27],76.3%
same,"viability, T/C",[28],83.6%
same,"viability, T/C",[29],70.9%
same,"viability, T/C",[30],0.9%
same,"viability, T/C",[31],42.1%
same,"viability, T/C",[32],38.5%
same,"viability, T/C",[33],33.8%
same,"viability, T/C",[34],38.1%
same,"viability, T/C",[35],32.5%
same,"viability, T/C",[36],1.18%
same,"viability, T/C",[37],35.6%
same,"viability, T/C",[38],33.2%
same,"viability, T/C",[39],33.7%
same,"viability, T/C",[40],44.9%
same,"viability, T/C",[41],32%
same,"viability, T/C",[42],1.34%
same,"viability, T/C",[43],32%
same,"viability, T/C",[44],31.9%
same,"viability, T/C",[45],30.8%
same,"viability, T/C",[46],38.6%
same,"viability, T/C",[47],28.6%
same,"viability, T/C",[48],2.29%
same,"viability, T/C",[49],31.2%
same,"viability, T/C",[50],33.2%
same,"viability, T/C",[51],42%
same,"viability, T/C",[52],31.2%
same,"viability, T/C",[53],32.7%
same,"viability, T/C",[54],0.72%
same,"viability, T/C",[55],30.8%
same,"viability, T/C",[56],25.5%
same,"viability, T/C",[57],30.7%
same,"viability, T/C",[58],32.7%
same,"viability, T/C",[59],29.3%
same,"viability, T/C",[60],1.59%
NC(=O)C(=Cn1cnc(-c2cc(C(F)(F)F)cc(C(F)(F)F)c2)n1)c1cncnc1 + CNC(=O)c1ccc(Nc2nc(OC3CCCC3)c3c(-c4ccc5nc(C)oc5c4)c[nH]c3n2)c(OC)c1,IC50,second compound 0.0316 µM,38.6 nM
same,IC50,second compound 0.1 µM,< 9.49 nM
same,IC50,second compound 0.316 µM,< 9.49 nM
same,IC50,second compound 1 µM,< 9.49 nM
same,IC50,second compound 3.16 µM,< 9.49 nM
same,IC50,second compound 10 µM,< 9.49 nM
same,"viability, T/C",[1],72.8%
same,"viability, T/C",[2],57.6%
same,"viability, T/C",[3],25.4%
same,"viability, T/C",[4],12.7%
same,"viability, T/C","second compound 0.0316 µM, first compound 0.949 µM",7.15%
same,"viability, T/C","second compound 0.0316 µM, first compound 3 µM",2.1%
same,"viability, T/C",[5],32.3%
same,"viability, T/C",[6],29.7%
same,"viability, T/C",[7],21.4%
same,"viability, T/C",[8],12.4%
same,"viability, T/C","second compound 0.1 µM, first compound 0.949 µM",6.65%
same,"viability, T/C","second compound 0.1 µM, first compound 3 µM",2.59%
same,"viability, T/C",[9],36.7%
same,"viability, T/C",[10],32.8%
same,"viability, T/C",[11],23.8%
same,"viability, T/C",[12],12%
same,"viability, T/C","second compound 0.316 µM, first compound 0.949 µM",5.08%
same,"viability, T/C","second compound 0.316 µM, first compound 3 µM",1.7%
same,"viability, T/C",[13],31.9%
same,"viability, T/C",[14],32.6%
same,"viability, T/C",[15],20.9%
same,"viability, T/C",[16],10.4%
same,"viability, T/C","second compound 1 µM, first compound 0.949 µM",3.69%
same,"viability, T/C","second compound 1 µM, first compound 3 µM",0.49%
same,"viability, T/C",[17],30.1%
same,"viability, T/C",[18],34.9%
same,"viability, T/C",[19],18.2%
same,"viability, T/C",[20],7.24%
same,"viability, T/C","second compound 3.16 µM, first compound 0.949 µM",2.43%
same,"viability, T/C","second compound 3.16 µM, first compound 3 µM",0.24%
same,"viability, T/C",[21],37.7%
same,"viability, T/C",[22],26.8%
same,"viability, T/C",[23],14.3%
same,"viability, T/C",[24],7.07%
same,"viability, T/C","second compound 10 µM, first compound 0.949 µM",2.12%
same,"viability, T/C","second compound 10 µM, first compound 3 µM",0.82%
Nc1ccccc1NC(=O)c1ccc(CNC(=O)OCc2cccnc2)cc1 + CNC(=O)c1ccc(Nc2nc(OC3CCCC3)c3c(-c4ccc5nc(C)oc5c4)c[nH]c3n2)c(OC)c1,IC50,second compound 0.0316 µM,1820 nM
same,IC50,second compound 0.1 µM,< 31.6 nM
same,IC50,second compound 0.316 µM,< 31.6 nM
same,IC50,second compound 1 µM,< 31.6 nM
same,IC50,second compound 3.16 µM,< 31.6 nM
same,IC50,second compound 10 µM,< 31.6 nM
same,"viability, T/C",[25],87.7%
same,"viability, T/C",[26],81.9%
same,"viability, T/C",[27],95.7%
same,"viability, T/C",[28],70.6%
same,"viability, T/C",[29],29.8%
same,"viability, T/C",[30],7.39%
same,"viability, T/C",[31],32.2%
same,"viability, T/C",[32],40.1%
same,"viability, T/C",[33],36.5%
same,"viability, T/C",[34],27.8%
same,"viability, T/C",[35],11.5%
same,"viability, T/C",[36],5.65%
same,"viability, T/C",[37],44.5%
same,"viability, T/C",[38],40.2%
same,"viability, T/C",[39],27.7%
same,"viability, T/C",[40],25.4%
same,"viability, T/C",[41],15.3%
same,"viability, T/C",[42],4.66%
same,"viability, T/C",[43],39.1%
same,"viability, T/C",[44],29.2%
same,"viability, T/C",[45],28.4%
same,"viability, T/C",[46],20.4%
same,"viability, T/C",[47],14.3%
same,"viability, T/C",[48],3.91%
same,"viability, T/C",[49],31.8%
same,"viability, T/C",[50],30.1%
same,"viability, T/C",[51],25.1%
same,"viability, T/C",[52],21.4%
same,"viability, T/C",[53],12.9%
same,"viability, T/C",[54],3.52%
same,"viability, T/C",[55],38.7%
same,"viability, T/C",[56],30.2%
same,"viability, T/C",[57],25.2%
same,"viability, T/C",[58],17.3%
same,"viability, T/C",[59],12.2%
same,"viability, T/C",[60],2.97%
